Reference: patent US9791436B2, “Protease-based biosensor” (priority 2012, dated 2017)
pKd: −log10 of the molar value.

Columns and labels:
[1] = biological target: T1, Erbin-PDZ-FN affinity clamp complex (Homo sapiens, UniProt Q96RT1); experiment: Induction of the TVMV-based allosteric receptor by PDZ ligands of different affinity; format: biochemical; conditions: FIG. 11C
T1 construct: made in house; host or cells: E. coli BL21(DE3)-RIL
Procedure: The maximum induction ratio of TVMV-based allosteric receptors (500 nM) was measured in a similar fashion in the presence or absence of the PDZ ligand peptide-1 ([…]) at a final concentration of 10 μM in protease assay buffer consisting of 50 mM Tris-HCl, 1 M NaCl, 1 mM DTT and 0.5 mM EDTA, pH 8.0. The reaction was generally initiated following the addition of TVMV substrate peptide (Table 1) to a final concentration of 10 μM.
A set of different allosterically regulated proteases was constructed by varying the composition of the three different linkers connecting TVMV to the Erbin-PDZ domain (Linker 1), the Erbin-PDZ domain to the FN3 domain (Linker 2) and the FN3 domain to the AI-domain (Linker 3). […] The largest modulation was effected by progressively shortening and lengthening linker L1.

[2] = biological target: ePDZ-b1; conditions: cited from earlier work
Chain of ePDZ-b1 (as listed by the source): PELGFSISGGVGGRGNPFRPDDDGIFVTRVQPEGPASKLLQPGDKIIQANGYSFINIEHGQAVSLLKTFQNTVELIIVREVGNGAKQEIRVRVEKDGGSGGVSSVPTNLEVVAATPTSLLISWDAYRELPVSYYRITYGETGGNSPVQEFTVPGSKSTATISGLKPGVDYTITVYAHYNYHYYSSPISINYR

T1 sequence (Q96RT1 with tags, fused parts or gaps limits assumed): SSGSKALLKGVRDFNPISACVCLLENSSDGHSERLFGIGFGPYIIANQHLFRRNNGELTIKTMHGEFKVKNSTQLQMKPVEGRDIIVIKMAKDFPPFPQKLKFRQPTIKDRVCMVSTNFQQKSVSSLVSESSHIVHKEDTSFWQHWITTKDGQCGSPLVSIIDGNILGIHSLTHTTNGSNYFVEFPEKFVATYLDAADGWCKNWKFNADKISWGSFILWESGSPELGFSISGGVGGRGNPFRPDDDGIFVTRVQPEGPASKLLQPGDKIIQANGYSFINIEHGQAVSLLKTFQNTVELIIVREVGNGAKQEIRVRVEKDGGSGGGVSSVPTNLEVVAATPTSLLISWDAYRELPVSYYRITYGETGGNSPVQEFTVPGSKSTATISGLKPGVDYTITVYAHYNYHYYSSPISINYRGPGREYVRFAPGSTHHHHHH

Sequence | induction of activity compared to the higher affinity PDZ peptide ligand-1 [1] | pKd [2]
PQPVDSWV [PDZ-Ligand 2] | approximately 10 fold lower | ~8.30
RGSIDTWV [PDZ-Ligand 1] | – | ~9.20
